From patent US20160000066A1, “Furfural derivatives as a vehicle” (priority 2013, published 2016)

What was measured:
Type in all cases: physicochemical
[1] = Solubilization of resins in the test solvent: BADGE DER 331; details: BADGE DER 331 in the compound as solvent
Procedure: (§1) The following table lists the solubilities obtained for four resins tested: BADGE DER 331 epoxy resin sold by DOW CHEMICAL, Palatal A400-01 polyester resin sold by DSM, Novolac DEN 425 epoxy resin sold by DOW CHEMICAL and TGPA resin available from Sigma Aldrich.
(§2) A single solubility test was carried out per solvent/resin pair, at a working concentration of 100 g/l, at ambient temperature. The tests were carried out on the milliliter scale (i.e., 0.5 g/5 ml). The tests are carried out in transparent glass flasks. The resin (0.5 g) is weighed into the flask and then the required volume (5 ml) of test solvent is introduced into this same flask. Stirring is carried out using a vortex mixer for 1 to 5 minutes. The results for solubility of the resins in the solvents tested, shown in the table below, are obtained by visual observations.

[2] = Solubilization of resins in the test solvent: Palatal A400-01; details: Palatal A400-01 in the compound as solvent
Procedure: as §1, §2

[3] = Solubilization of resins in the test solvent: Novolac DEN 425; details: Novolac DEN 425 in the compound as solvent
Procedure: as §1, §2

[4] = Solubilization of resins in the test solvent: TGPA; details: TGPA in the compound as solvent, visual
Procedure: as §1, §2

[5] = adjusted protocol: solvent heated on a water bath at 30° C. before the test

Structure (SMILES) | Solubility at ambient temperature (100 g/l) [1, 5] | Solubility at ambient temperature (100 g/l) [2, 5] | Solubility at ambient temperature (100 g/l) [3, 5] | Solubility at ambient temperature (100 g/l) ([1]; ambient temperature, visual) | Solubility at ambient temperature (100 g/l) ([2]; ambient temperature, visual) | Solubility at ambient temperature (100 g/l) ([3]; ambient temperature, visual) | Solubility at ambient temperature (100 g/l) [4]
CCCOC(=O)c1ccco1 [(6)] |  |  |  | Partial | Soluble | Soluble | 
CCCCCOC(=O)c1ccco1 [(9)] |  |  |  | Soluble | Soluble | Soluble | Soluble
O=C(OCCc1ccccc1)c1ccco1 [(10)] |  |  |  | Soluble | Soluble | Soluble | Soluble
CCCCN=Cc1ccco1 [(15)] |  |  |  | Partial | Soluble | Soluble | Soluble
CCCCCCCCN=Cc1ccco1 [(16)] |  |  |  | Partial | Soluble | Soluble | Soluble

Other lines, results leading:

Solubility at ambient temperature (100 g/l) [1, 5] | Solubility at ambient temperature (100 g/l) [2, 5] | Solubility at ambient temperature (100 g/l) [3, 5] | Solubility at ambient temperature (100 g/l) ([1]; ambient temperature, visual) | Solubility at ambient temperature (100 g/l) ([2]; ambient temperature, visual) | Solubility at ambient temperature (100 g/l) ([3]; ambient temperature, visual) | Solubility at ambient temperature (100 g/l) [4] | Structure (SMILES)
Soluble* | Soluble* | Soluble* |  |  |  |  | CC(=O)/C=C/c1ccco1 [(1)]
 |  |  | Soluble | Soluble | Soluble | Soluble | CC(C)C(=O)/C=C/c1ccco1 [(3)]
 |  |  | Soluble | Soluble | Soluble | Soluble | COC(=O)c1ccco1 [(8)]
 |  |  | Soluble | Soluble | Soluble | Soluble | Cc1ccc(C=O)o1 [(17)]
